For the test, the system named is P388 leukemia ip, CD2F1 mice, survival T/C. In words: NCI In Vivo Anticancer Drug Screen. Data for tumor model P388 Leukemia (intraperitoneal) in CD2F1 (CDF1) mice. The note with it: endpoint: median survival time, higher = longer survival. The method in brief: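 Mice carrying the transplanted tumor received test compound or vehicle. Survival was recorded in each group, and the value is the treated-group measurement divided by that of the vehicle-treated control group.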

[1] abbreviates: dose: 12.5 mg/kg/injection, schedule: Q01DX009 (ip), vehicle: other.
Setting [2] is: dose: 25.0 mg/kg/injection, schedule: Q01DX009 (ip), vehicle: other.
The mark [3] stands for this setting: dose: 50.0 mg/kg/injection, schedule: Q01DX009 (ip), vehicle: other.
The mark [4] stands for this setting: dose: 100.0 mg/kg/injection, schedule: Q01DX009 (ip), vehicle: other.
The mark [5] stands for this setting: dose: 50.0 mg/kg/injection, schedule: Q01DX009 (ip), vehicle: saline.
[6] abbreviates: dose: 100.0 mg/kg/injection, schedule: Q01DX009 (ip), vehicle: saline.
Setting [7] is: dose: 200.0 mg/kg/injection, schedule: Q01DX009 (ip), vehicle: saline.
[8] abbreviates: dose: 50.0 mg/kg/injection, schedule: Q01DX009 (ip), vehicle: saline with Tween-80.
The mark [9] stands for this setting: dose: 100.0 mg/kg/injection, schedule: Q01DX009 (ip), vehicle: saline with Tween-80.
The mark [10] stands for this setting: dose: 200.0 mg/kg/injection, schedule: Q01DX009 (ip), vehicle: saline with Tween-80.
Setting [11] is: dose: 12.5 mg/kg/injection, schedule: Q01DX009 (ip), vehicle: Klucel (hydroxypropylcellulose) (HPC).
Setting [12] is: dose: 50.0 mg/kg/injection, schedule: Q01DX009 (ip), vehicle: Klucel (hydroxypropylcellulose) (HPC).
The mark [13] stands for this setting: dose: 100.0 mg/kg/injection, schedule: Q01DX009 (ip), vehicle: Klucel (hydroxypropylcellulose) (HPC).
[14] abbreviates: dose: 50.0 mg/kg/injection, schedule: Q01DX005 (ip), vehicle: saline with Tween-80.
[15] abbreviates: dose: 100.0 mg/kg/injection, schedule: Q01DX005 (ip), vehicle: saline with Tween-80.
[16] abbreviates: dose: 200.0 mg/kg/injection, schedule: Q01DX005 (ip), vehicle: saline with Tween-80.
Where [17] appears, read: dose: 60.0 mg/kg/injection, schedule: Q01DX005 (ip), vehicle: Klucel (hydroxypropylcellulose) (HPC).
Setting [18] is: dose: 120.0 mg/kg/injection, schedule: Q01DX005 (ip), vehicle: Klucel (hydroxypropylcellulose) (HPC).

T/C data for 21 compounds are collected here from PubChem BioAssay AID330 (DTP/NCI, 2004).

Several values for one entry are separate records, joined by “and”; a condition that tells them apart may be missing. Equal values may be shown once. Toxic doses and inconclusive results are not listed.

Turning to `CCSC(SCC)C(NC(C)=O)C(OC(C)=O)C(OC(C)=O)C(COC(C)=O)OC(C)=O` (stereo not drawn), the T/C is 107 % of control under setting [1]; 107 % of control under setting [2]; 95 % of control under setting [3]; 107 % of control under setting [4]; 98 % of control (dose: 200.0 mg/kg/injection, schedule: Q01DX009 (ip), vehicle: other).
With `CC1(C)CC(O)C2OC2(C)C1` (stereo not drawn), the T/C is 94 % of control under setting [5], 89 % of control under setting [6] and 101 % of control under setting [7].
As for `Nc1c(/C=C/c2cc3cc(C4=NCCN4)ccc3o2)[nH]c2cc(C3=NCCN3)ccc12`, the T/C runs as follows: (dose: 50.0 mg/kg/injection, schedule: Q01DX005 (ip), vehicle: Klucel (hydroxypropylcellulose) (HPC)) 245 % of control; (dose: 100.0 mg/kg/injection, schedule: Q01DX005 (ip), vehicle: Klucel (hydroxypropylcellulose) (HPC)) 110 % of control and 227 % of control.
For `O=C1C2=C(CCC2)C2CCCC12` (stereo not drawn), the T/C under setting [8] was 102 % of control, the T/C under setting [9] is 109 % of control and the T/C under setting [10] was 90 % of control.
Turning to `O=C(NNS(=O)(=O)CCC(NC(=O)OCc1ccccc1)C(=O)OCc1ccccc1)OCc1ccccc1` (stereo not drawn), the T/C under setting [1] is 110 % of control, the T/C under setting [2] was 102 % of control, the T/C under setting [3] is 96 % of control and the T/C under setting [4] was 96 % of control.
For the compound `O=C1C=C(Cl)C(=O)C(c2ccc(Cl)cc2)=C1`, the T/C is, setting by setting: (dose: 6.25 mg/kg/injection, schedule: Q01DX009 (ip), vehicle: Klucel (hydroxypropylcellulose) (HPC)) 100 % of control; under setting [11], 96 % of control; under setting [12], 92 % of control.
For the compound `O=C1CCCC1C(=O)c1ccccc1.O=C1CCCC1C(=O)c1ccccc1.[Cu]` (stereo not drawn), the T/C is, setting by setting: under setting [11], 103 % of control; (dose: 25.0 mg/kg/injection, schedule: Q01DX009 (ip), vehicle: Klucel (hydroxypropylcellulose) (HPC)) 100 % of control; under setting [12], 100 % of control and 109 % of control; under setting [13], 116 % of control.
As for `O=S(=O)(O)CNc1ccc(Cl)cc1`, the T/C is 113 % of control under setting [8], 113 % of control under setting [9] and 106 % of control under setting [10].
As to `CCCCCC1(C2CCCCO2)NC(=O)NC1=O` (stereo not drawn), the T/C under setting [14] is 97 % of control, the T/C under setting [15] is 99 % of control and the T/C under setting [16] was 91 % of control.
Consider `CN(C)C1CS(=O)(=O)OC2=C1CCc1c2ccn1C` (stereo not drawn), for which the T/C under setting [17] was 96 % of control; the T/C under setting [18] is 98 % of control; the T/C (dose: 240.0 mg/kg/injection, schedule: Q01DX005 (ip), vehicle: Klucel (hydroxypropylcellulose) (HPC)) was 96 % of control.
Take `CC(C)(C)OC(=O)NC(CC(Cc1ccccc1)C(=O)O)C(=O)NC(CC(Cc1ccccc1)C(=O)O)C(=O)NC(CC(Cc1ccccc1)C(=O)O)C(=O)NCC(=O)Oc1ccc([N+](=O)[O-])cc1` (stereo not drawn): the T/C runs as follows: (dose: 12.5 mg/kg/injection, schedule: Q01DX005 (ip), vehicle: saline with Tween-80) 99 % of control; (dose: 25.0 mg/kg/injection, schedule: Q01DX005 (ip), vehicle: saline with Tween-80) 91 % of control; under setting [14], 89 % of control.
Consider `Cc1cc(=O)n(-c2ccc(S(=O)(=O)Nc3nccs3)cc2)c(C)c1C(=O)O`, for which the T/C under setting [14] is 103 % of control, the T/C under setting [15] was 98 % of control and the T/C under setting [16] is 100 % of control.
`CCOC(=O)N(C)C`: the T/C was 89 % of control (dose: 25.0 mg/kg/injection, schedule: Q01DX009 (ip), vehicle: saline); 91 % of control under setting [5]; 99 % of control under setting [6]; 105 % of control under setting [7].
For `Cc1cccc(C)c1Nc1nnc(-c2ccc(N(C)C)cc2)s1`, the T/C by setting is: (dose: 60.0 mg/kg/injection, schedule: Q01DX005 (ip), vehicle: saline with Tween-80) 86 % of control; (dose: 120.0 mg/kg/injection, schedule: Q01DX005 (ip), vehicle: saline with Tween-80) 87 % of control.
`CC1CN(Cc2ccccc2)CC(C)N1Cc1ccccc1` (stereo not drawn): the T/C by setting is: under setting [14], 103 % of control; under setting [15], 105 % of control; under setting [16], 103 % of control.
`COc1ccc(-c2c(N)cnc(C)c2C)c(OC)c1OC`: the T/C under setting [1] was 107 % of control, the T/C under setting [2] was 107 % of control, the T/C under setting [3] was 99 % of control and the T/C under setting [4] was 87 % of control.
As for `CCCCCC(CN(C)C)/C(CC(NO)c1ccccc1)=N\O` (stereo not drawn), the T/C is, setting by setting: under setting [12], 106 % of control; under setting [13], 106 % of control.
Take `C1COCCOCCOCCO1.[Br][Sn]([Br])([Br])[Br]`: the T/C runs as follows: under setting [17], 103 % of control; under setting [18], 107 % of control.
`O=C(O)CSc1nnc(C2CCC(=O)N2Cc2ccccc2)o1` (stereo not drawn): the T/C (dose: 100.0 mg/kg/injection, schedule: Q01DX001 (ip), vehicle: saline with Tween-80) was 99 % of control; the T/C (dose: 200.0 mg/kg/injection, schedule: Q01DX001 (ip), vehicle: saline with Tween-80) is 101 % of control; the T/C (dose: 400.0 mg/kg/injection, schedule: Q01DX001 (ip), vehicle: saline with Tween-80) was 95 % of control.
With `NC(Cc1cccs1)C(=O)Nc1nncs1` (stereo not drawn), the T/C was 95 % of control (dose: 100.0 mg/kg/injection, schedule: Q04DX002 (ip), vehicle: suspension in saline); 119 % of control (dose: 200.0 mg/kg/injection, schedule: Q04DX002 (ip), vehicle: suspension in saline); 160 % of control (dose: 400.0 mg/kg/injection, schedule: Q04DX002 (ip), vehicle: saline); 121 % of control (dose: 400.0 mg/kg/injection, schedule: Q04DX002 (ip), vehicle: suspension in saline); 160 % of control (dose: 600.0 mg/kg/injection, schedule: Q04DX002 (ip), vehicle: saline).
Consider `CCC1CC2CN(CCc3c([nH]c4ccccc34)C(C(=O)OC)(c3cc4c(cc3OC)N(C)C3C(O)(C(=O)OC)C(OC(C)=O)C5(CC)C=CCN6CCC43C65)C2)C1` (stereo not drawn), for which the T/C runs as follows: (dose: 0.05 mg/kg/injection, schedule: Q01DX009 (ip), vehicle: Klucel (hydroxypropylcellulose) (HPC)) 123 % of control; (dose: 0.06 mg/kg/injection, schedule: Q01DX009 (ip), vehicle: water) 124 % of control; (dose: 0.25 mg/kg/injection, schedule: Q04DX003 (ip), vehicle: water) 150 % of control; (dose: 0.4 mg/kg/injection, schedule: Q01DX009 (ip), vehicle: Klucel (hydroxypropylcellulose) (HPC)) 169 % of control; (dose: 0.5 mg/kg/injection, schedule: Q04DX003 (ip), vehicle: water) 160 % of control; (dose: 0.8 mg/kg/injection, schedule: Q01DX009 (ip), vehicle: Klucel (hydroxypropylcellulose) (HPC)) 169 % of control. Further, the T/C runs as follows: (dose: 1.0 mg/kg/injection, schedule: Q04DX003 (ip), vehicle: water) 223 % of control; (dose: 2.0 mg/kg/injection, schedule: Q04DX003 (ip), vehicle: water) 232 % of control; (dose: 4.0 mg/kg/injection, schedule: Q01DX009 (ip), vehicle: water) 115 % of control.
